Reference: paper PMC4879371, “Antitrypanosomal Activities and Mechanisms of Action of Novel Tetracyclic Iridoids from Morinda lucida Benth” (Antimicrobial Agents and Chemotherapy, 2016)

What follows are compounds tested on GUTat 3.1 strain of the bloodstream form of T. brucei brucei (assay: alamarBlue in vitro viability test for trypanosome parasites). Settings: Trypanosoma brucei, 48 h of incubation, read-out: IC50, antitrypanosomal activity.
Format: cell-based
Method: The GUTat 3.1 strain of the bloodstream form of T. brucei brucei parasites was used in this study. Parasites were cultured in vitro according to the conditions established previously ([36]). Parasites were used when they reached a confluent concentration of 1 × 10^6 parasites/ml. Estimation of parasitemia was done with the Neubauer counting chamber. Parasites were diluted to a concentration of 3 × 10^5 parasites/ml with HM1-9 medium and were used for the various experiments.
The alamarBlue assay (Life Technologies, USA) was carried out on treated or untreated trypanosome parasites to ascertain their viability. The assay was performed in a 96-well plate following the manufacturer's instructions with modification. Briefly, 1.5 × 10^4 parasites were seeded with varied concentrations of plant material (extracts, fractions, or compounds) ranging from 0.78 μg/ml to […]. Final concentrations of EtOH and dimethyl sulfoxide (DMSO) were kept at <1% and 0.1%, respectively. After incubation of parasites with or without plant extracts or compounds for 24 h at 37°C in 5% CO2, 10% alamarBlue dye was added, and the parasites were incubated another 24 h in darkness. After a total of 48 h, the plate was read for absorbance at 540 nm using the Tecan Sunrise Wako spectrophotometer. The trend curve was drawn to obtain a 50% inhibitory concentration (IC50) of each plant material (extracts, fractions, and compounds).

| Structure (SMILES) | IC50 [µM] |
| --- | --- |
| COc1c2cc(C=O)ccc2c(OC)c2c(O)cccc12 [oruwalol] | 518 |
| CC1(C)CC[C@]2(C(=O)O)CC[C@]3(C)C(=CC[C@@H]4[C@@]5(C)CC[C@H](O)C(C)(C)[C@@H]5CC[C@]43C)[C@@H]2C1 [oleanolic acid] | 13.7 |
| C[C@H]1[C@H](C)CC[C@]2(C(=O)O)CC[C@]3(C)C(=CC[C@@H]4[C@@]5(C)CC[C@H](O)C(C)(C)[C@@H]5CC[C@]43C)[C@H]12 [ursolic acid] | 15.4 |
